Data: ChEMBL document CHEMBL3217699, “Discovery of potent, proteolytically stable, and cell permeable human sirtuin peptidomimetic inhibitors containing N-thioacetyl-lysine” (Medchemcomm, 2010)
Activity calls are given as the source filed them. No cut-off for these calls is given here. Where a SMILES comes first, the peptide text is derived from it.

Key:
[1] = molecular target: T1, NAD-dependent protein deacetylase sirtuin-1 (Homo sapiens, UniProt Q96EB6); assay: Inhibition of human SIRT1 using peptide substrate assessed as deacetylase activity
T1 sequence (Q96EB6 whole entry): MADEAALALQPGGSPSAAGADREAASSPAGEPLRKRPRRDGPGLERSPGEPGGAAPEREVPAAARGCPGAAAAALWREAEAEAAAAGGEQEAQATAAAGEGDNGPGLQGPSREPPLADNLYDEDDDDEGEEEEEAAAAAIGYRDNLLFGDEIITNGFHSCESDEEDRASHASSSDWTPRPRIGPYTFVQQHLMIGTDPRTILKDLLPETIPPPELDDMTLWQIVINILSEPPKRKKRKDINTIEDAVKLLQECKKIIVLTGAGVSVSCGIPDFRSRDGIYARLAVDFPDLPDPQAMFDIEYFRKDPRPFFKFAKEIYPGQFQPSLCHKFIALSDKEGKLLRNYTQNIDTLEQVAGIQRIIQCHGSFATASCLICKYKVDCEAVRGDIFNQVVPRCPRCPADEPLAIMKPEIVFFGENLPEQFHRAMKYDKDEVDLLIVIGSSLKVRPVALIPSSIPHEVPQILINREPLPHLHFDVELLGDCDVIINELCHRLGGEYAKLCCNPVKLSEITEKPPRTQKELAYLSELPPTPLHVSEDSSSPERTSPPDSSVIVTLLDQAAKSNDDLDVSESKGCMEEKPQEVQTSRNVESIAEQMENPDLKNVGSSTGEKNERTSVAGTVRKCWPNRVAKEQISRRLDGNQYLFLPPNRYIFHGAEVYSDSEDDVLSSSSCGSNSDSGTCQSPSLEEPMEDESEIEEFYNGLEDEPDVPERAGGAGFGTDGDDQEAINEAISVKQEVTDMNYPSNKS

[2] = Proteolytic stability of the compound assessed as degradation after 30 mins by HPLC in presence of pronase; type: ADME; conditions: 0.5 h
[3] = molecular target: T2, NAD-dependent protein deacetylase sirtuin-1 (Homo sapiens) (UniProt Q96EB6); assay: Activity of GST-tagged SIRT1 (unknown origin) assessed as compound deacetylation measured up to 4 hrs by sirutin time course assay
T2 sequence (whole entry): T1 sequence (Q96EB6 whole entry)

[4] = molecular target: T3, Histone deacetylase 8 (Homo sapiens) (UniProt Q9BY41); assay: Activity of recombinant HDAC8 (unknown origin) assessed as compound deacetylation measured up to 4 hrs by time course assay
T3 sequence (whole entry): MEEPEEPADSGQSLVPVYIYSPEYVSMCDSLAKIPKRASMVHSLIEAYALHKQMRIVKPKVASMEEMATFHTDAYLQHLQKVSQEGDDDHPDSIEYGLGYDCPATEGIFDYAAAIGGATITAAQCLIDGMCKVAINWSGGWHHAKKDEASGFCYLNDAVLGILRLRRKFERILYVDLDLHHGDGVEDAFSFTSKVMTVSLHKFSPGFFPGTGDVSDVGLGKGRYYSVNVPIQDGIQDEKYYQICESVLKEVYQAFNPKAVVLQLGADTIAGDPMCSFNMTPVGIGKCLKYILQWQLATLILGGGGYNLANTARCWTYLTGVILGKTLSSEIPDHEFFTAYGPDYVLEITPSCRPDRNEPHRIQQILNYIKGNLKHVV

[5] = molecular target: Histone deacetylase 1 (Homo sapiens) (UniProt Q13547); assay: Activity of HDAC1 in human HeLa cells nuclear extract assessed as compound deacetylation measured up to 2 hrs by time course assay; type: cell-free
Chain of Histone deacetylase 1 (Homo sapiens) (Q13547 whole entry): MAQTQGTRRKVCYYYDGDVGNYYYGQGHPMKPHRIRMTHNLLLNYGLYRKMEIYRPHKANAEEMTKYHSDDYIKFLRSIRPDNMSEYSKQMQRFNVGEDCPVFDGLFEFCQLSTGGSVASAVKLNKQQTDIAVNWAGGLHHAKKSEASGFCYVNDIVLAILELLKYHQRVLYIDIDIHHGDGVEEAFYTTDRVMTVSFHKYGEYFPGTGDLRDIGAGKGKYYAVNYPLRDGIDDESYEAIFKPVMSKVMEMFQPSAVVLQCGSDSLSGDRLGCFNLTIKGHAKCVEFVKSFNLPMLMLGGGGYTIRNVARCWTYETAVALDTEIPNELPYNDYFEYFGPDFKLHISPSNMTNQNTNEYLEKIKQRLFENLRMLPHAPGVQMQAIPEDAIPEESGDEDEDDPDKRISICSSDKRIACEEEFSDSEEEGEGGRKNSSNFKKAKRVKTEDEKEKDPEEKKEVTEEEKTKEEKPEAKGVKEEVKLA

[6] = molecular target: Histone deacetylase 2 (Homo sapiens) (UniProt Q92769); assay: Activity of HDAC2 in human HeLa cells nuclear extract assessed as compound deacetylation measured up to 2 hrs by time course assay; type: cell-free
Chain of Histone deacetylase 2 (Homo sapiens) (Q92769 whole entry): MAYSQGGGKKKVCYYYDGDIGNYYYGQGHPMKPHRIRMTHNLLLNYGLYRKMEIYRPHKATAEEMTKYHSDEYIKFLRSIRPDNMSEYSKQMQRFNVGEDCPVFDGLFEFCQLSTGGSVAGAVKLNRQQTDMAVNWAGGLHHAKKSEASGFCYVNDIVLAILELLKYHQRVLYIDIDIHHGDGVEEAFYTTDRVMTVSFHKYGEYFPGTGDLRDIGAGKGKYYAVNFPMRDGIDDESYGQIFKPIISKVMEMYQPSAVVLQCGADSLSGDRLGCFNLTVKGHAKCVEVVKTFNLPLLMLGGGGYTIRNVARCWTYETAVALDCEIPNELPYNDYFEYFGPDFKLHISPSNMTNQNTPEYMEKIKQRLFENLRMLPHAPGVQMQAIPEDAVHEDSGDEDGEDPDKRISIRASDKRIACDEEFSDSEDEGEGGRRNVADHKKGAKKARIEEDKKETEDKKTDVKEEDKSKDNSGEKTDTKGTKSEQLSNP

[7] = molecular target: T2, NAD-dependent protein deacetylase sirtuin-1 (Homo sapiens); assay: Inhibition of SIRT1 in human HCT116 cells assessed as increase in p53 acetylation level by Western blot analysis; type: cell-based; conditions: HCT-116
[8] = molecular target: T2, NAD-dependent protein deacetylase sirtuin-1 (Homo sapiens); assay: Inhibition of SIRT1 in human HCT116 cells assessed as increase in p53 acetylation level at 3 uM by Western blot analysis; type: cell-based; conditions: HCT-116
[9] = molecular target: T4, NAD-dependent protein deacetylase sirtuin-2 (Homo sapiens, UniProt Q8IXJ6); assay: Inhibition of GST-tagged SIRT2 (unknown origin) by HPLC assay
T4 sequence (Q8IXJ6 whole entry): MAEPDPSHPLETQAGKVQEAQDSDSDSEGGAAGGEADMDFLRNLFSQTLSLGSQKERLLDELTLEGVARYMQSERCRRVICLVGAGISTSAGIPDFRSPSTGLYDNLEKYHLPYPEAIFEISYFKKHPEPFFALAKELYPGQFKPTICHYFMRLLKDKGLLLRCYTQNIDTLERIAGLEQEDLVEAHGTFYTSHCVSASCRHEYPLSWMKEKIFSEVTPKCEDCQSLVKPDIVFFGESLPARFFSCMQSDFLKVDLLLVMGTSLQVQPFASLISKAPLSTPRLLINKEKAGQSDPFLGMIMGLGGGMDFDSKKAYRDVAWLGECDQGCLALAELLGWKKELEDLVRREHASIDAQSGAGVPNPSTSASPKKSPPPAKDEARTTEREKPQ

[10] = molecular target: T5, NAD-dependent protein deacetylase sirtuin-3, mitochondrial (Homo sapiens, UniProt Q9NTG7); assay: Inhibition of GST-tagged SIRT3 (unknown origin) by HPLC assay
T5 sequence (Q9NTG7 whole entry): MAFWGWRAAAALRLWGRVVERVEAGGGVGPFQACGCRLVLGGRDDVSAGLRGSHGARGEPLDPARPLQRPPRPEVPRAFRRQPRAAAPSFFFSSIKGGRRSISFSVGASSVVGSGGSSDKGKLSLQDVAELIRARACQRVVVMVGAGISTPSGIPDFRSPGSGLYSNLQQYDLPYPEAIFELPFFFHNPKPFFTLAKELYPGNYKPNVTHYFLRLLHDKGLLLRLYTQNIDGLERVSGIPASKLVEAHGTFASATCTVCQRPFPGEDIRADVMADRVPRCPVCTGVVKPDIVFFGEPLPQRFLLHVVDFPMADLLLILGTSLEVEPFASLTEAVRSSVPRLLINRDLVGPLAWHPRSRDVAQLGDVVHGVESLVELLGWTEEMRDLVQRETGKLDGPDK

[11] = molecular target: T6, NAD-dependent protein deacetylase sirtuin-2 (Homo sapiens) (UniProt Q8IXJ6); assay: Ratio of AGK2 to compound in GST-tagged SIRT2 (unknown origin)
T6 sequence (whole entry): T4 sequence (Q8IXJ6 whole entry)

[12] = molecular target: T6, NAD-dependent protein deacetylase sirtuin-2 (Homo sapiens); assay: Activity of GST-tagged SIRT2 (unknown origin) assessed as compound deacetylation measured up to 4 hrs by sirutin time course assay
[13] = molecular target: T7, NAD-dependent protein deacetylase sirtuin-3, mitochondrial (Homo sapiens) (UniProt Q9NTG7); assay: Activity of GST-tagged SIRT3 (unknown origin) assessed as compound deacetylation measured up to 4 hrs by sirutin time course assay
T7 sequence (whole entry): T5 sequence (Q9NTG7 whole entry)

[14] = molecular target: T2, NAD-dependent protein deacetylase sirtuin-1 (Homo sapiens); assay: Inhibition of SIRT1 in human HCT116 cells assessed as increase in p53 acetylation level at 5 uM by Western blot analysis; type: cell-based; conditions: HCT-116
[15] = molecular target: T2, NAD-dependent protein deacetylase sirtuin-1 (Homo sapiens); assay: Inhibition of SIRT1 in human HCT116 cells assessed as increase in p53 acetylation level at 500 uM by Western blot analysis; type: cell-based; conditions: HCT-116
[16] = molecular target: T2, NAD-dependent protein deacetylase sirtuin-1 (Homo sapiens); conditions: HCT-116, 10 uM
Description: Inhibition of SIRT1 in human HCT116 cells assessed as increase in p53 acetylation level at 10 uM by Western blot analysis

An IC50 [1] of 6 µM was found for `CSCC[C@H](NC(=O)[C@H](Cc1ccc(O)cc1)NC(=O)[C@H](CCCCNC(C)=S)NC(=O)[C@H](Cc1ccc(O)cc1)NC(=O)[C@H](Cc1c[nH]cn1)NC(C)=O)C(N)=O` (HELM PEPTIDE1{[ac].H.Y.[CC(=S)NCCCC[C@H](N[*:1])C(=O)[*:2]].Y.M.[am]}$$$$V2.0) in this work.

An IC50 [1] of 0.7 µM was found for `CSCC[C@H](NC(=O)[C@H](CCCCNC(C)=O)NC(=O)[C@H](CCCCNC(C)=S)NC(=O)[C@H](CCCCN)NC(=O)[C@H](Cc1c[nH]cn1)NC(C)=O)C(N)=O` (HELM PEPTIDE1{[ac].H.K.[CC(=S)NCCCC[C@H](N[*:1])C(=O)[*:2]].K.M.[am]}|PEPTIDE2{[ac]}$PEPTIDE1,PEPTIDE2,5:R3-1:R2$$$V2.0) in this work.

An IC50 [1] of 3.5 µM was found for `CSCC[C@H](NC(=O)[C@H](Cc1ccc(O)cc1)NC(=O)[C@H](CCCCNC(C)=S)NC(=O)[C@H](CCCCN)NC(=O)[C@H](Cc1c[nH]cn1)NC(C)=O)C(N)=O` (HELM PEPTIDE1{[ac].H.K.[CC(=S)NCCCC[C@H](N[*:1])C(=O)[*:2]].Y.M.[am]}$$$$V2.0) in this work.

With `CC(=O)NCCCC[C@H](NC(=O)[C@H](CCCCNC(C)=S)NC(=O)[C@H](CCCCNC(C)=O)NC(C)=O)C(N)=O` the IC50 [1] was 2.1 µM, the Stability [2] was “Stable” and the Activity [3] was “inactive”. The Activity [4] was “inactive”, the Activity [5] was 19% and the Activity [6] was 19%. The inhibition [7] was “Dose-dependent effect”, the inhibition [8] was “Active” and the IC50 [9] was 2.4 µM. The IC50 [10] was 4.5 µM, the Ratio [11] was 23 and the Activity [12] was “inactive”. The Activity [13] was “inactive”.

In the case of `CC(=O)NCCC[C@H](NC(=O)[C@H](CCCCNC(C)=S)NC(=O)[C@H](CCCNC(C)=O)NC(C)=O)C(N)=O`, the IC50 [1] is reported as 5.9 µM, the Stability [2] is reported as “Stable” and the Activity [3] is reported as “inactive”. For the same compound, the Activity [4] was “inactive”, the Activity [5] was “inactive” and the Activity [6] was “inactive”. For the same compound, the IC50 [9] was 2.9 µM, the IC50 [10] was 4.3 µM and the Activity [12] was “inactive”. For the same compound, the Activity [13] was “inactive” and the inhibition [14] was “Active”.

An IC50 [1] of 4.1 µM was found for `CSCC[C@H](NC(=O)[C@H](CC(C)C)NC(=O)[C@H](CCCCNC(C)=S)NC(=O)[C@H](CCCCNC(C)=O)NC(=O)[C@H](Cc1c[nH]cn1)NC(C)=O)C(N)=O` (HELM PEPTIDE1{[ac].H.K.[CC(=S)NCCCC[C@H](N[*:1])C(=O)[*:2]].L.M.[am]}|PEPTIDE2{[ac]}$PEPTIDE1,PEPTIDE2,3:R3-1:R2$$$V2.0) in this work.

An IC50 [1] of 4.2 µM was found for `CSCC[C@H](NC(=O)[C@H](CC(C)C)NC(=O)[C@H](CCCCNC(C)=S)NC(=O)[C@H](Cc1ccc(O)cc1)NC(=O)[C@H](Cc1c[nH]cn1)NC(C)=O)C(N)=O` (HELM PEPTIDE1{[ac].H.Y.[CC(=S)NCCCC[C@H](N[*:1])C(=O)[*:2]].L.M.[am]}$$$$V2.0) in this work.

With `CSCC[C@H](NC(=O)[C@H](CC(C)C)NC(=O)[C@H](CCCC/N=C(/C)S)NC(=O)[C@H](CCCCN)NC(=O)[C@H](Cc1c[nH]cn1)NC(=O)[C@H](CCCN=C(N)N)NC(=O)[C@H](CO)NC(=O)[C@@H](NC(=O)[C@H](CO)NC(=O)[C@H](CCC(N)=O)NC(=O)CNC(=O)[C@H](CCCCN)NC(=O)[C@@H](N)CCCCN)[C@@H](C)O)C(=O)N[C@@H](Cc1ccccc1)C(=O)N[C@@H](CCCCN)C(=O)N[C@H](C(=O)N[C@@H](CCC(=O)O)C(=O)NCC(=O)O)[C@@H](C)O` the inhibition [15] was “inactive”.

In the case of `CC(=S)NCCCC[C@H](NC(=O)OCc1ccccc1)C(=O)Nc1ccccc1`, the IC50 [1] is reported as 140 µM and the inhibition [16] is reported as “inactive”.

An IC50 [1] of 2 µM was found for `CSCC[C@H](NC(=O)[C@H](CCCCNC(C)=O)NC(=O)[C@H](CCCCNC(C)=S)NC(=O)[C@H](CCCCNC(C)=O)NC(=O)[C@H](Cc1c[nH]cn1)NC(C)=O)C(N)=O` (HELM PEPTIDE1{[ac].H.K.[CC(=S)NCCCC[C@H](N[*:1])C(=O)[*:2]].K.M.[am]}|PEPTIDE2{[ac]}|PEPTIDE3{[ac]}$PEPTIDE1,PEPTIDE2,3:R3-1:R2|PEPTIDE1,PEPTIDE3,5:R3-1:R2$$$V2.0) in this work.
